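At the GI50, growth is halved. TGI is the concentration that stops growth completely.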
Tests used:
Test in all cases: growth of human tumour cells (NCI), 384-well format
OVCAR-8 ovarian = tested on: OVCAR-8 ovarian
CAKI-1 renal = tested on: CAKI-1 renal
HCT-116 colon = tested on: HCT-116 colon
LOX IMVI melanoma = tested on: LOX IMVI melanoma
SW-620 colon = tested on: SW-620 colon
RPMI-8226 leukemia = tested on: RPMI-8226 leukemia
SK-OV-3 ovarian = tested on: SK-OV-3 ovarian
K-562 leukemia = tested on: K-562 leukemia
MALME-3M melanoma = tested on: MALME-3M melanoma
DU-145 prostate = tested on: DU-145 prostate
HL-60(TB) leukemia = tested on: HL-60(TB) leukemia
CCRF-CEM leukemia = tested on: CCRF-CEM leukemia
MOLT-4 leukemia = tested on: MOLT-4 leukemia
MDA-MB-468 breast = tested on: MDA-MB-468 breast
EKVX NSCLC = tested on: EKVX NSCLC
SNB-19 CNS = tested on: SNB-19 CNS
U251 glioblastoma = tested on: U251 glioblastoma
HCC-2998 colon = tested on: HCC-2998 colon
NCI-H460 NSCLC = tested on: NCI-H460 NSCLC
NCI-H522 lung = tested on: NCI-H522 lung
OVCAR-3 ovarian = tested on: OVCAR-3 ovarian
OVCAR-4 ovarian = tested on: OVCAR-4 ovarian
UACC-257 melanoma = tested on: UACC-257 melanoma
ACHN renal = tested on: ACHN renal
786-0 renal = tested on: 786-0 renal
SK-MEL-28 melanoma = tested on: SK-MEL-28 melanoma
SN12C renal = tested on: SN12C renal
PC-3 prostate = tested on: PC-3 prostate
UO-31 renal = tested on: UO-31 renal
SF-268 CNS = tested on: SF-268 CNS
NCI-H23 lung = tested on: NCI-H23 lung
MDA-MB-231 breast = tested on: MDA-MB-231 breast
A549 NSCLC = tested on: A549 NSCLC
TK-10 renal = tested on: TK-10 renal
HT29 colon = tested on: HT29 colon
IGROV1 ovarian = tested on: IGROV1 ovarian
MDA-MB-435 melanoma = tested on: MDA-MB-435 melanoma
HOP-92 NSCLC = tested on: HOP-92 NSCLC
BT-549 breast = tested on: BT-549 breast
SF-539 CNS = tested on: SF-539 CNS
SK-MEL-5 melanoma = tested on: SK-MEL-5 melanoma
NCI/ADR-RES ovarian = tested on: NCI/ADR-RES ovarian
HOP-62 NSCLC = tested on: HOP-62 NSCLC
HS 578T breast = tested on: HS 578T breast
A498 renal = tested on: A498 renal
KM12 colon = tested on: KM12 colon
NCI-H226 lung = tested on: NCI-H226 lung
MCF7 breast = tested on: MCF7 breast
T-47D breast = tested on: T-47D breast
NCI-H322M lung = tested on: NCI-H322M lung
COLO 205 colon = tested on: COLO 205 colon
M14 melanoma = tested on: M14 melanoma
SF-295 CNS = tested on: SF-295 CNS
OVCAR-5 ovarian = tested on: OVCAR-5 ovarian
SR leukemia = tested on: SR leukemia
HCT-15 colon = tested on: HCT-15 colon
UACC-62 melanoma = tested on: UACC-62 melanoma
SNB-75 CNS = tested on: SNB-75 CNS
RXF 393 renal = tested on: RXF 393 renal

## CN(C)/N=N/c1nc[nH]c1C(N)=O
OVCAR-8 ovarian
  GI50: 69.9 µM
CAKI-1 renal
  GI50: 34.7 µM
HCT-116 colon
  GI50: 66.3 µM
LOX IMVI melanoma
  GI50: 29.2 µM
SW-620 colon
  GI50: 97.4 µM
RPMI-8226 leukemia
  GI50: 18.3 µM
SK-OV-3 ovarian
  GI50: 95.3 µM
K-562 leukemia
  GI50: 44.6 µM
MALME-3M melanoma
  GI50: 79.5 µM
DU-145 prostate
  GI50: 83.8 µM
HL-60(TB) leukemia
  GI50: 6.42 µM
CCRF-CEM leukemia
  GI50: 45.5 µM
MOLT-4 leukemia
  GI50: 6.9 µM
  TGI: 21.7 µM
MDA-MB-468 breast
  GI50: 30.4 µM

## Cc1nc(Nc2ncc(C(=O)Nc3c(C)cccc3Cl)s2)cc(N2CCN(CCO)CC2)n1
EKVX NSCLC
  GI50: 0.724 µM
  TGI: 15.6 µM
OVCAR-8 ovarian
  GI50: 0.0643 µM
  TGI: 2.97 µM
SNB-19 CNS
  GI50: 8.69 µM
  TGI: 21.7 µM
U251 glioblastoma
  GI50: 4.2 µM
  TGI: 17.8 µM
HCC-2998 colon
  GI50: 5.08 µM
  TGI: 16.8 µM
CAKI-1 renal
  GI50: 0.0277 µM
  TGI: 225 nM
HCT-116 colon
  GI50: 4.83 µM
  TGI: 17.4 µM
NCI-H460 NSCLC
  GI50: 9.52 µM
  TGI: 21.4 µM
LOX IMVI melanoma
  GI50: 0.0277 µM
  TGI: 1250 nM
NCI-H522 lung
  GI50: 0.0135 µM
  TGI: 98 nM
OVCAR-3 ovarian
  GI50: 15.1 nM
  TGI: 419 nM
OVCAR-4 ovarian
  GI50: 0.0588 µM
  TGI: 850 nM
UACC-257 melanoma
  GI50: 5.53 µM
  TGI: 18.2 µM
ACHN renal
  GI50: 17.2 nM
  TGI: 234 nM
SW-620 colon
  GI50: 15.1 µM
  TGI: 28.6 µM
786-0 renal
  GI50: 35.7 nM
  TGI: 2500 nM
RPMI-8226 leukemia
  GI50: 2.11 µM
  TGI: 5.5 µM
SK-MEL-28 melanoma
  GI50: 5.62 µM
  TGI: 18.7 µM
SN12C renal
  GI50: 13.9 nM
  TGI: 3.39 µM
PC-3 prostate
  GI50: 3.12 µM
  TGI: 17.5 µM
UO-31 renal
  GI50: 57 nM
  TGI: 840 nM
SK-OV-3 ovarian
  GI50: 0.0496 µM
  TGI: 3.14 µM
SF-268 CNS
  GI50: 30.3 nM
  TGI: 128 nM
NCI-H23 lung
  GI50: 2.59 µM
  TGI: 10.7 µM
MDA-MB-231 breast
  GI50: 0.0251 µM
  TGI: 1040 nM
A549 NSCLC
  GI50: 27.5 nM
  TGI: 12.6 µM
MALME-3M melanoma
  GI50: 3.19 µM
  TGI: 8.82 µM
TK-10 renal
  GI50: 25.9 nM
  TGI: 164 nM
HT29 colon
  GI50: 2020 nM
  TGI: 13.3 µM
IGROV1 ovarian
  TGI: 37.5 nM
DU-145 prostate
  GI50: 0.227 µM
  TGI: 4.85 µM
MDA-MB-435 melanoma
  GI50: 9.25 µM
  TGI: 20.8 µM
HOP-92 NSCLC
  GI50: 37.2 nM
  TGI: 2040 nM
BT-549 breast
  GI50: 0.0327 µM
  TGI: 1.26 µM
SF-539 CNS
  GI50: 48.2 nM
  TGI: 1640 nM
SK-MEL-5 melanoma
  GI50: 4.26 µM
  TGI: 15.1 µM
NCI/ADR-RES ovarian
  GI50: 1870 nM
  TGI: 14.7 µM
HOP-62 NSCLC
  GI50: 64.8 nM
  TGI: 12.2 µM
HS 578T breast
  GI50: 0.0129 µM
  TGI: 49.4 nM
A498 renal
  GI50: 251 nM
  TGI: 2750 nM
KM12 colon
  GI50: 7.3 µM
  TGI: 19.8 µM
HL-60(TB) leukemia
  GI50: 7.23 µM
  TGI: 18.1 µM
NCI-H226 lung
  GI50: 0.0247 µM
  TGI: 2640 nM
MCF7 breast
  GI50: 10 µM
  TGI: 21.7 µM
T-47D breast
  GI50: 0.176 µM
  TGI: 15.1 µM
NCI-H322M lung
  GI50: 0.0381 µM
  TGI: 973 nM
COLO 205 colon
  GI50: 3.8 µM
  TGI: 10.7 µM
M14 melanoma
  GI50: 2860 nM
  TGI: 8.23 µM
SF-295 CNS
  GI50: 2590 nM
  TGI: 18.9 µM
OVCAR-5 ovarian
  GI50: 41 nM
  TGI: 6.27 µM
SR leukemia
  GI50: 5.44 µM
  TGI: 8.78 µM
MOLT-4 leukemia
  GI50: 1 µM
  TGI: 3 µM
HCT-15 colon
  GI50: 1.03 µM
  TGI: 13.7 µM
UACC-62 melanoma
  GI50: 2050 nM
  TGI: 10.1 µM
MDA-MB-468 breast
  GI50: 0.695 µM
  TGI: 4.51 µM

## CC(O)c1cc(C(=O)N[C@@H](C)Cn2ccc(-c3ccc(C#N)c(Cl)c3)n2)n[nH]1 (stereo not given in full)
EKVX NSCLC
  GI50: 34.8 µM
  TGI: > 100 µM
OVCAR-8 ovarian
  GI50: 35.3 µM
  TGI: 96.9 µM
SNB-19 CNS
  GI50: > 100 µM
  TGI: > 100 µM
U251 glioblastoma
  GI50: > 100 µM
  TGI: > 100 µM
HCC-2998 colon
  GI50: > 100 µM
  TGI: > 100 µM
CAKI-1 renal
  GI50: > 88.3 µM
  TGI: > 100000 nM
HCT-116 colon
  GI50: 33.8 µM
  TGI: > 100 µM
NCI-H460 NSCLC
  GI50: > 76.4 µM
  TGI: > 100 µM
LOX IMVI melanoma
  GI50: 40.2 µM
  TGI: > 100000 nM
NCI-H522 lung
  GI50: 43.3 µM
  TGI: > 100000 nM
OVCAR-3 ovarian
  GI50: > 94200 nM
  TGI: > 100000 nM
OVCAR-4 ovarian
  GI50: 31.3 µM
  TGI: > 100000 nM
SNB-75 CNS
  GI50: > 74.4 µM
  TGI: > 100 µM
UACC-257 melanoma
  GI50: > 80.4 µM
  TGI: > 100 µM
ACHN renal
  GI50: > 46400 nM
  TGI: > 69600 nM
SW-620 colon
  GI50: > 100 µM
  TGI: > 100 µM
786-0 renal
  GI50: > 100000 nM
  TGI: > 100000 nM
RPMI-8226 leukemia
  GI50: 21.9 µM
  TGI: > 70.8 µM
SK-MEL-28 melanoma
  GI50: > 100 µM
  TGI: > 100 µM
SN12C renal
  GI50: > 100000 nM
  TGI: > 100 µM
PC-3 prostate
  GI50: > 100 µM
  TGI: > 100 µM
UO-31 renal
  GI50: > 45200 nM
  TGI: > 63000 nM
SK-OV-3 ovarian
  GI50: > 64.3 µM
  TGI: > 100 µM
SF-268 CNS
  GI50: > 76200 nM
  TGI: > 100000 nM
NCI-H23 lung
  GI50: 27.2 µM
  TGI: > 100 µM
MDA-MB-231 breast
  GI50: 42.1 µM
  TGI: > 100000 nM
A549 NSCLC
  GI50: > 93400 nM
  TGI: > 100 µM
MALME-3M melanoma
  GI50: > 56.3 µM
  TGI: > 100 µM
TK-10 renal
  GI50: > 100000 nM
  TGI: > 100000 nM
HT29 colon
  GI50: > 100000 nM
  TGI: > 100 µM
IGROV1 ovarian
  GI50: > 100 µM
  TGI: > 100000 nM
DU-145 prostate
  GI50: > 100 µM
  TGI: > 100 µM
MDA-MB-435 melanoma
  GI50: > 74.1 µM
  TGI: > 100 µM
HOP-92 NSCLC
  GI50: > 100000 nM
  TGI: > 100000 nM
BT-549 breast
  GI50: 36.7 µM
  TGI: 98.6 µM
SF-539 CNS
  GI50: > 100000 nM
  TGI: > 100000 nM
SK-MEL-5 melanoma
  GI50: 17.5 µM
  TGI: 36.5 µM
NCI/ADR-RES ovarian
  GI50: > 100000 nM
  TGI: > 100 µM
RXF 393 renal
  GI50: 22.9 µM
  TGI: 69.6 µM
HOP-62 NSCLC
  GI50: > 67600 nM
  TGI: > 100 µM
HS 578T breast
  GI50: 65.6 µM
  TGI: > 100000 nM
A498 renal
  GI50: > 100000 nM
  TGI: > 100000 nM
KM12 colon
  GI50: > 92.4 µM
  TGI: > 100 µM
HL-60(TB) leukemia
  GI50: 28.9 µM
  TGI: > 61.9 µM
NCI-H226 lung
  GI50: 35.6 µM
  TGI: > 75900 nM
MCF7 breast
  GI50: 57.7 µM
  TGI: > 100 µM
T-47D breast
  GI50: 17.8 µM
  TGI: 59.4 µM
NCI-H322M lung
  GI50: 34.9 µM
  TGI: > 100000 nM
CCRF-CEM leukemia
  GI50: 31.5 µM
  TGI: > 100 µM
COLO 205 colon
  GI50: > 82.6 µM
  TGI: > 100 µM
M14 melanoma
  GI50: > 83300 nM
  TGI: > 100 µM
SF-295 CNS
  GI50: > 57400 nM
  TGI: > 100 µM
OVCAR-5 ovarian
  GI50: > 100000 nM
  TGI: > 100 µM
SR leukemia
  GI50: 15.9 µM
  TGI: 33.8 µM
MOLT-4 leukemia
  GI50: 15.2 µM
  TGI: 29 µM
HCT-15 colon
  GI50: 59 µM
  TGI: > 100 µM
UACC-62 melanoma
  GI50: > 80400 nM
  TGI: > 100 µM
MDA-MB-468 breast
  GI50: 12 µM
  TGI: 42 µM
